Assay results from patent US20140081017A1, “Histone Deacetylase Inhibitors for Enhancing Activity of Antifungal Agents” (METHYLGENE INC., priority 2012, published 2014).
In brackets after ≈: the same amount, converted by molar mass. Like-named read-outs stand apart in the source and are kept apart here.

What was measured:
C. glabrata = assay: Checkerboard FIC assay in combination with fluconazole (MIC alone and in combination, FICI); type: cell-based, Candida glabrata; conditions: for FICI of combination resulting in fluconazole MIC of: 2 ug/mL / FICI of combination resulting in fluconazole MIC of: 4 ug/mL / FICI of combination resulting in fluconazole MIC of: 8 ug/mL: FICI calculated using a fluconazole MIC of 16 μg/mL; for FICI of combination resulting in fluconazole MIC of: 2 ug/mL (value in parenthesis) / FICI of combination resulting in fluconazole MIC of: 4 ug/mL (value in parenthesis) / FICI of combination resulting in fluconazole MIC of: 8 ug/mL (value in parenthesis): FICI using a fluconazole MIC of 128 μg/mL; for MIC: Nakaseomyces glabratus; for Concentration of Methylgene compound to synergize fluconazole MIC to 2 ug/mL / Concentration of Methylgene compound to synergize fluconazole MIC to 4 ug/mL / Concentration of Methylgene compound to synergize fluconazole MIC to 8 ug/mL: in combination with fluconazole; for Concentration of Methylgene compound to synergize fluconazole MIC to 2 ug/mL: fluconazole MIC lowered to 2 ug/mL; for Concentration of Methylgene compound to synergize fluconazole MIC to 4 ug/mL: fluconazole MIC lowered to 4 ug/mL; for Concentration of Methylgene compound to synergize fluconazole MIC to 8 ug/mL: fluconazole MIC lowered to 8 ug/mL
Method: The ability of the compounds to synergize with azoles against C. glabrata was evaluated by the checkerboard assay, a common laboratory method used to evaluate synergy, antagonism, and indifference using fractional inhibitory concentrations (FICs) and FIC indices (FICI).
The test compounds were supplied as a powder and dissolved in dimethylsulfoxide (DMSO) on the day of assay. Stock solutions were prepared at 640 ug/mL. Fluconazole was dissolved in deionized water to a stock concentration of 320 ug/mL. All test articles were in solution under these conditions.
(§1) The test organisms and reference isolates were streaked for isolation on Sabouraud agar medium (yeasts) or potato dextrose agar (fungi). Colonies were picked by swab from the medium and resuspended in the appropriate broth containing cryoprotectant. The suspensions were aliquoted into cryogenic vials and maintained at −80° C.
(§2) Prior to testing, the yeast isolates were streaked from the frozen vials onto Sabouraud dextrose agar. The plates were incubated overnight at 35° C. The fungal isolate was grown on potato dextrose agar slants and was incubated for 7-10 days at room temperature.
(§3) Both yeast and fungal isolates were tested in RPMI medium buffered with 0.165 M MOPS (3-(N-morpholino)propanesulfonic acid). The pH of the medium was adjusted to 7.0 with 1 N NaOH. The medium was sterile filtered using a 0.2 um PES (polyethersulfone) filter and stored at 4° C. until used.
FIC values were determined using a broth microdilution method (CLSI; 1, 3). To prepare the test plates, automated liquid handlers (Multidrop 384, Labsystems, Helsinki, Finland; Biomek 2000 and Biomek FX, Beckman Coulter, Fullerton Calif.) were used to conduct serial dilutions and liquid transfers.
The wells of standard 96-well microdilution plates (Costar 3795) were filled with 150 uL of DMSO in columns 2-12. Three hundred microliters of each test compound was added to each well in Column 1 of the plates. The Biomek 2000 was used to make eleven 2-fold serial dilutions in each of these “test compound mother” plates. The wells of the “fluconazole mother plates” were filled with 150 uL of sterile water in rows B-H. Row A of these plates was filled with 300 uL of the fluconazole stock solution. Serial 2-fold dilutions were then prepared from top to bottom by hand, using a multichannel pipette in rows B-G. The “daughter plates” were loaded with 180 uL of RPMI using the Multidrop 384. The Biomek FX was used to transfer 5 uL of compound solution from each well of a fluconazole mother plate to the corresponding well in all of the daughter plates in a single step. Then the Biomek FX was used to transfer 5 uL of compound solution from each well of a test compound mother plate to the corresponding well of the corresponding test compound daughter plate (already containing fluconazole at the appropriate concentrations) in a single step. Row H and Column 12 each contained serial dilutions of the test agent and fluconazole alone, respectively, for determination of the MIC.
Standardized inoculum of each organism was prepared per CLSI methods (CLSI; 1, 3). For yeast isolates, colonies were picked from the primary plate and a suspension was prepared in 0.85% saline to equal a 0.5 McFarland turbidity standard. For the fungal isolate, 1 mL of 0.85% saline was dispensed onto a potato dextrose agar slant onto which the isolate had been inoculated 7-10 days previously. Using a swab, a suspension of the fungus was made. After a short time to allow the heavy particles to settle out, a small quantity of the supernatant was dispensed into 0.85% saline and the suspension was adjusted to equal a 0.5 McFarland turbidity standard. Both yeast and fungal isolates were diluted 1:100 in RPMI and then transferred to compartments of sterile reservoirs divided by length (Beckman Coulter). The Biomek 2000 was used to inoculate the plates. […]

Candida parapsilosis = assay: Minimal Inhibitory Concentration (MIC) assay, broth microdilution per CLSI; type: cell-based; conditions: for MIC: Lodderomyces parapsilosis, read-out: Minimum Inhibitory Concentrations against Yeast Isolates, Candida parapsilosis;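 as to all read-outs here: two read times 24 hr and 48 hr of incubation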
Method: (§4) The in vitro activities of the inventive compounds (compound(s) herein) against fungi and/or yeasts were determined with isolates Candida albicans, Candida glabrata and Candida parapsilosis. The comparator compounds included fluconazole, caspofungin and amphotericin B.
(§5) The compounds were supplied as a powder, and were dissolved in dimethylsulfoxide (DMSO) the day of assay. Stock solutions were prepared at 10 mg/mL and diluted to a starting stock concentration of 2.56 mg/mL. Amphotericin B was dissolved in DMSO to a stock concentration of 2.56 mg/mL. Fluconazole was dissolved in deionized water to a stock concentration of 2.56 mg/mL. Caspofungin was received as a stock solution of 3.2 mg/mL in DMSO and was diluted to a starting stock concentration of 2.56 mg/mL.
as §1, §2, §3
(§6) The MIC assay method followed the procedure described by the Clinical and Laboratory Standards Institute (CLSI; 1, 2, 3) and employed automated liquid handlers to conduct serial dilutions and liquid transfers. Automated liquid handlers included the Multidrop 384 (Labsystems, Helsinki, Finland), Biomek 2000 and Biomek FX (Beckman Coulter, Fullerton Calif.). The wells in columns 2-12 in standard 96-well microdilution plates (Costar 3795) were filled with 150 ul of 100% DMSO. These would become the ‘mother plates’ from which ‘daughter’ or test plates would be prepared. The compounds (300 uL at 40× the desired top concentration in the test plates) were dispensed into the appropriate well in Column 1 of the mother plates. The Biomek 2000 was used to make serial 1:1 dilutions through Column 11 in the “mother plate”. The wells of Column 12 contained no compounds and were the organism growth control wells.
(§7) The daughter plates were loaded with 185 uL per well of RPMI described above using the Multidrop 384. The daughter plates were prepared using the Biomek FX which transferred 5 μL of the compound solution from each well of a mother plate to the corresponding well of the daughter plate in a single step.
(§8) Standardized inoculum of each organism was prepared per CLSI methods. For yeast isolates, colonies were picked from the streak plate and a suspension was prepared in 0.85% saline. For the fungal isolate, 1 mL of 0.85% saline was dispensed onto the potato dextrose agar slant that had been inoculated 7-10 days previously. Using a swab, a suspension of the fungus was made. After a short time to allow the heavy particles to settle out, a small quantity of the supernatant was dispensed into 0.85% saline and the suspension adjusted to equal a 0.5 McFarland turbidity standard. Both yeast and fungal isolates were diluted 1:100 in RPMI and then transferred to compartments of sterile reservoirs divided by length (Beckman Coulter). The Biomek 2000 was used to inoculate the plates. Daughter plates were placed on the Biomek 2000 work surface reversed so that inoculation took place from low to high compound concentration. The Biomek 2000 delivered 10 μL of standardized inoculum into each well. Thus, the wells of the daughter plates ultimately contained 185 uL of RPMI, 5 uL of the compound solution, and 10 uL of inoculum. […]

Candida albicans = assay: as above; type: cell-based; conditions: for MIC: Candida albicans, read-out: Minimum Inhibitory Concentrations against Yeast Isolates, Candida albicans;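 as to all read-outs here: two read times 24 hr and 48 hr of incubation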
Method: as §4, §5, §1, §2, §3, §6, §7, §8

Candida glabrata = assay: as above; type: cell-based; conditions: for MIC: Nakaseomyces glabratus, read-out: Minimum Inhibitory Concentrations against Yeast Isolates, Candida glabrata;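 as to all read-outs here: two read times 24 hr and 48 hr of incubation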
Method: as §4, §5, §1, §2, §3, §6, §7, §8

[1] = MIC of the example compound alone against C. glabrata in the checkerboard assay, approximately 48 hr, read-out: Methylgene MIC
[2] = test compound alone, C. glabrata, approx. 48 hr at 35° C., read-out: Compound MIC
[3] = 24 hr reading (first value of cell 24 hr/48 hr)
[4] = 48 hr reading (second value of cell 24 hr/48 hr)

| Compound | FICI of combination resulting in fluconazole MIC of: 2 ug/mL (C. glabrata; C. glabrata) | FICI of combination resulting in fluconazole MIC of: 4 ug/mL (C. glabrata; C. glabrata) | FICI of combination resulting in fluconazole MIC of: 8 ug/mL (C. glabrata; C. glabrata) | FICI of combination resulting in fluconazole MIC of: 2 ug/mL (value in parenthesis) (C. glabrata; C. glabrata) | FICI of combination resulting in fluconazole MIC of: 4 ug/mL (value in parenthesis) (C. glabrata; C. glabrata) | FICI of combination resulting in fluconazole MIC of: 8 ug/mL (value in parenthesis) (C. glabrata; C. glabrata) | MIC (C. glabrata; [1]) [µg/mL] | MIC (C. glabrata; [2]) [µg/mL] | Concentration of Methylgene compound to synergize fluconazole MIC to 2 ug/mL (C. glabrata; C. glabrata) [µg/mL] | Concentration of Methylgene compound to synergize fluconazole MIC to 4 ug/mL (C. glabrata; C. glabrata) [µg/mL] | Concentration of Methylgene compound to synergize fluconazole MIC to 8 ug/mL (C. glabrata; C. glabrata) [µg/mL] | MIC (Candida parapsilosis; [3]) [µg/mL] | MIC (Candida parapsilosis; [4]) [µg/mL] | MIC (Candida albicans; [3]) [µg/mL] | MIC (Candida albicans; [4]) [µg/mL] | MIC (Candida glabrata; [3]) [µg/mL] | MIC (Candida glabrata; [4]) [µg/mL] | also measured |
| --- | --- | --- | --- | --- | --- | --- | --- | --- | --- | --- | --- | --- | --- | --- | --- | --- | --- | --- |
| O=C(Cc1ccc(CCCCc2ccc(NS(=O)(=O)CCN3CCOCC3)cc2)cc1)NO [Example 51, N-hydroxy-2-(4-(4-(4-(2-morpholinoethylsulfona-mido)phenyl)butyl)phenyl)acetamide] | 0.313 | 0.250 | 0.375 | 0.266 | 0.156 | 0.188 | 16 | 16 | 4 | 2 | 2 | > 64 | > 64 | > 64 | > 64 | 4 (≈ 8.41 µM) | 16 (≈ 33.6 µM) | Multiple of compound MIC to synergize fluconazole MIC to 2 ug/mL (C. glabrata; concentration in combination as multiple of the compound's MIC alone, fluconazole MIC 2 ug/mL): (¼x); Multiple of compound MIC to synergize fluconazole MIC to 4 ug/mL (C. glabrata; concentration in combination as multiple of the compound's MIC alone, fluconazole MIC 4 ug/mL): (⅛x); Multiple of compound MIC to synergize fluconazole MIC to 8 ug/mL (C. glabrata; concentration in combination as multiple of the compound's MIC alone, fluconazole MIC 8 ug/mL): (⅛x) |
| O=C(Cc1ccc(CCCCc2ccc(C(=O)O)cc2)cc1)NO [Example 14, 4-(4-(4-(2-(hydroxyamino)-2-oxoethyl)phenyl)butyl)benzoic acid] | > 0.563 | > 0.625 | > 0.750 | > 0.516 | > 0.531 | > 0.563 | > 16 | > 16 | 16 | 16 | 16 | 32 (≈ 97.7 µM) | > 64 | 16 (≈ 48.9 µM) | > 64 | 32 (≈ 97.7 µM) | 64 (≈ 195 µM) |  |
| CN(C)CCCOc1ccc(CCCCc2ccc(CC(=O)NO)cc2)cc1 [Example 17, 2-(4-(4-(4-(3-(dimethylamino)propoxy)phenyl)butyl)phe-nyl)-N-hydroxyacetamide] |  |  |  |  |  |  |  |  |  |  |  | > 64 | > 64 | > 64 | > 64 | > 64 | > 64 |  |
| O=C(Cc1ccc(CCCCc2ccccc2)o1)NO [Example 62, N-hydroxy-2-(5-(4-phenylbutyl)furan-2-yl)acetamide] |  |  |  |  |  |  |  |  |  |  |  | 32 (≈ 117 µM) | 32 (≈ 117 µM) | 32 (≈ 117 µM) | 32 (≈ 117 µM) | 32 (≈ 117 µM) | 32 (≈ 117 µM) |  |
| O=C(Cc1ccc(CCCCc2ccc(OCCN3CCCC3)cc2)cc1)NO [Example 18, N-hydroxy-2-(4-(4-(4-(2-(pyrrolidin-1-yl)ethoxy)phenyl)butyl)phenyl)acetamide] |  |  |  |  |  |  |  |  |  |  |  | > 64 | > 64 | > 64 | > 64 | > 64 | > 64 |  |
| C[C@@H]1[C@H](O)[C@@H](C)/C=C/C=C/C=C/C=C/C=C/C=C/C=C/[C@H](O[C@@H]2O[C@H](C)[C@@H](O)[C@H](N)[C@@H]2O)C[C@@H]2O[C@](O)(C[C@@H](O)C[C@@H](O)[C@H](O)CC[C@@H](O)C[C@@H](O)CC(=O)O[C@H]1C)C[C@H](O)[C@H]2C(=O)O [Amphotericin B, reference compound] |  |  |  |  |  |  |  |  |  |  |  |  |  |  |  |  |  | Minimum Inhibitory Concentrations against Yeast Isolates, Candida parapsilosis (Candida parapsilosis; [3]): 0.25 µg/mL; Minimum Inhibitory Concentrations against Yeast Isolates, Candida parapsilosis (Candida parapsilosis; [4]): 0.5 µg/mL; Minimum Inhibitory Concentrations against Yeast Isolates, Candida albicans (Candida albicans; [3]): < 0.06 µg/mL; Minimum Inhibitory Concentrations against Yeast Isolates, Candida albicans (Candida albicans; [4]): 0.25 µg/mL; Minimum Inhibitory Concentrations against Yeast Isolates, Candida glabrata (Candida glabrata; [3]): < 0.06 µg/mL; Minimum Inhibitory Concentrations against Yeast Isolates, Candida glabrata (Candida glabrata; [4]): 0.5 µg/mL |
